Reference: US7795261B2, “Substituted 1-piperidin-4-yl-4-pyrrolidin-3-yl-piperazine derivatives and their use as neurokinin antagonists” (Janssen Pharmaceutica NV, priority 2002, dated 2010)

How the values were obtained:
Assay type in all cases: cell-based
NK1 = NK1 (Homo sapiens, UniProt P25103); test: Signal transduction (ST), intracellular Ca++ (FLIPR), NK1 antagonistic activity; details: read-out: pIC50 NK1 (converted)
Method in brief: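 Confluent cells loaded with 2 μM Fluo3 (1 h, 37 °C, probenecid), preincubated 20 min at RT with antagonist concentration range, then agonist added. Peak Ca++ transient read by FLIPR in Krebs buffer pH 7.4; IC50 by non-linear regression.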

NK2 = molecular target: T1, NK2 (Homo sapiens, UniProt P21452); test: Signal transduction (ST), intracellular Ca++ (FLIPR), NK2; details: read-out: pIC50 NK2 (converted)
T1 sequence (P21452 1-398): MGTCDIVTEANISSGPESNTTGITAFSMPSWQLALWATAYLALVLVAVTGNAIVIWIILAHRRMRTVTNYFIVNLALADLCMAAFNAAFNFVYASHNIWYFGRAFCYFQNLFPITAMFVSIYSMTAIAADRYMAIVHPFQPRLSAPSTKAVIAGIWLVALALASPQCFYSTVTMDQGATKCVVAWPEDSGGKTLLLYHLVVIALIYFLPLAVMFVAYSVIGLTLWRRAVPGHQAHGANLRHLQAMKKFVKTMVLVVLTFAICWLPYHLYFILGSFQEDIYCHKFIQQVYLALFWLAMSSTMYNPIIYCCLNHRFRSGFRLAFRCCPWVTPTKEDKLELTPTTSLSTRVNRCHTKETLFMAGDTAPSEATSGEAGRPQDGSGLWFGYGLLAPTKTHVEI
Description: [The procedure below names another target; the source lists this target under the same test.] This test evaluates in vitro functional NK1 antagonistic activity. For the measurements of intracellular Ca^++ concentrations the cells were grown on 96-well (black wall/transparent bottom) plates from Costar for 2 days until they reached confluence. The cells were loaded with 2 μM Fluo3 in DMEM containing 0.1% BSA and 2.5 mM probenecid for 1 h at 37° C. They were washed 3× with a Krebs buffer (140 mM NaCl, 1 mM MgCl2×6H2O, 5 mM KCl, 10 mM glucose, 5 mM HEPES; 1.25 mM CaCl2; pH 7.4) containing 2.5 mM probenecid and 0.1% BSA (Ca^++-buffer). The cells were preincubated with a concentration range of antagonists for 20 min at RT and Ca^++-signals after addition of the agonists were measured in a Fluorescence Image Plate Reader (FLIPR from Molecular Devices, Crawley, England). The peak of the Ca^++-transient was considered as the relevant signal and the mean values of corresponding wells were analysed as described below.
The sigmoidal dose response curves were analysed by computerised curve-fitting, using the GraphPad Program. […] For antagonist responses the IC50-value was calculated using non-linear regression.
The last columns indicates—without being limited therefore—for which the compounds might be most suitable. Of course, since for some neurokinin receptors no data was determined, it is obvious that these compounds might be attributed to another suitable use.

NK3 = molecular target: T2, NK3 (Homo sapiens, UniProt P29371); test: Signal transduction (ST), intracellular Ca++ (FLIPR), NK3; details: read-out: pIC50 NK3 (converted)
T2 sequence (P29371 1-465): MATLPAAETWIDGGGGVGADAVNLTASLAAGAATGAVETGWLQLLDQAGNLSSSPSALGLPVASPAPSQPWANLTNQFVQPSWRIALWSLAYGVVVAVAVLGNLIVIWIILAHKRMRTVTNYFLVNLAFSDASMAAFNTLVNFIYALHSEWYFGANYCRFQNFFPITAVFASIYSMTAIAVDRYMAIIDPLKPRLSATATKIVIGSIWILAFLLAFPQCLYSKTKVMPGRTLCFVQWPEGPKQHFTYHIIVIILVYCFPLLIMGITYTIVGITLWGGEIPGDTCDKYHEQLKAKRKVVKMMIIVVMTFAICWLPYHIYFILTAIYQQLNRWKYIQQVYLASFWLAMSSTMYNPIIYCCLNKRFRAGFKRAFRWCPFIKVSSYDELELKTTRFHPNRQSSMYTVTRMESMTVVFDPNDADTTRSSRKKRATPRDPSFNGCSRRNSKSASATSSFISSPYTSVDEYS

NK1, sequence (P25103 whole entry): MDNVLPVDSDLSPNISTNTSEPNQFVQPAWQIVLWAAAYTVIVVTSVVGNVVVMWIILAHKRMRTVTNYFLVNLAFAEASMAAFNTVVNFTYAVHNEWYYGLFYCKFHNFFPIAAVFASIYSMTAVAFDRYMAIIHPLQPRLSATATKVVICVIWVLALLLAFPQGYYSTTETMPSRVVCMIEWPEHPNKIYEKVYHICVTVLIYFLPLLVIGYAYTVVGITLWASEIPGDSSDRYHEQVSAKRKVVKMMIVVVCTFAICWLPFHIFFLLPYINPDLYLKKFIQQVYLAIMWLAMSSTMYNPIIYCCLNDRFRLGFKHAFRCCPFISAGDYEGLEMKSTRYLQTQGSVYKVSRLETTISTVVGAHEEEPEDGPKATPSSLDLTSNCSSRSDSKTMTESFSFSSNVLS

| SMILES | IC50 (NK1) | IC50 (NK2) | IC50 (NK3) |
| --- | --- | --- | --- |
| O=C(C1CC1)N1CCC(N2CCN([C@H]3CCN(C(=O)c4cc(C(F)(F)F)cc(C(F)(F)F)c4)[C@H](Cc4ccc(Cl)c(Cl)c4)C3)CC2)C1 (relative stereo) [Compound 162] | 10 nM | 1000 nM | 501 nM |
| O=C(c1ccccc1Cl)N1CCC(N2CCN([C@H]3CCN(C(=O)c4cc(C(F)(F)F)cc(C(F)(F)F)c4)[C@H](Cc4ccc(Cl)c(Cl)c4)C3)CC2)C1 (relative stereo) [Compound 164] | 15.8 nM | 79.4 nM | 398 nM |
| O=C(c1ccoc1)N1CCC(N2CCN(C3CCN(C(=O)c4cc(C(F)(F)F)cc(C(F)(F)F)c4)C(Cc4ccccc4)C3)CC2)C1 (single isomer, unassigned) [Compound 32] | 12.6 nM | 5010 nM | 200 nM |
| O=C(c1ccoc1)N1CCC(N2CCN(C3CCN(C(=O)c4cc(C(F)(F)F)cc(C(F)(F)F)c4)C(Cc4ccccc4)C3)CC2)C1 (single isomer, unassigned) [Compound 33] | 15.8 nM | 3980 nM | 501 nM |
| O=C(c1ccsc1)N1CCC(N2CCN(C3CCN(C(=O)c4cc(C(F)(F)F)cc(C(F)(F)F)c4)C(Cc4ccccc4)C3)CC2)C1 (single isomer, unassigned) [Compound 39] | 15.8 nM | 3160 nM | 398 nM |
| O=C(c1cccnc1)N1CCC(N2CCN([C@H]3CCN(C(=O)c4cc(C(F)(F)F)cc(C(F)(F)F)c4)[C@H](Cc4ccccc4)C3)CC2)C1 (stereo partly shown) [Compound 28] | 50.1 nM | 2510 nM | – |
| Cn1cc(C(=O)N2CCC(N3CCN([C@H]4CCN(C(=O)c5cc(C(F)(F)F)cc(C(F)(F)F)c5)[C@H](Cc5ccccc5)C4)CC3)C2)ccc1=O (stereo partly shown) [Compound 29] | 79.4 nM | 2000 nM | – |
| O=C1CCCN1CC(=O)N1CCC(N2CCN([C@H]3CCN(C(=O)c4cc(C(F)(F)F)cc(C(F)(F)F)c4)[C@H](Cc4ccccc4)C3)CC2)C1 (stereo partly shown) [Compound 214] | 20 nM | – | 3980 nM |
| O=C(CN1CCOC1=O)N1CCC(N2CCN([C@H]3CCN(C(=O)c4cc(C(F)(F)F)cc(C(F)(F)F)c4)[C@H](Cc4ccccc4)C3)CC2)C1 (stereo partly shown) [Compound 215] | 31.6 nM | – | 5010 nM |
| CC(C)(C)OC(=O)N1CCC(C(=O)N2CCC(N3CCN([C@H]4CCN(C(=O)c5cc(C(F)(F)F)cc(C(F)(F)F)c5)[C@H](Cc5ccccc5)C4)CC3)C2)C1 (stereo partly shown) [Compound 228] | 25.1 nM | – | 6310 nM |
| CC(C)(C)OC(=O)N1CCCC(C(=O)N2CCC(N3CCN([C@H]4CCN(C(=O)c5cc(C(F)(F)F)cc(C(F)(F)F)c5)[C@H](Cc5ccccc5)C4)CC3)C2)C1 (stereo partly shown) [Compound 229] | 31.6 nM | – | 2510 nM |
| O=C(c1cc(C(F)(F)F)cc(C(F)(F)F)c1)N1CC[C@H](N2CCN([C@@H]3CCNC3)CC2)C[C@H]1Cc1ccc(Cl)c(Cl)c1 [Compound 262] | 6.31 nM | 501 nM | – |
| O=C(C1CCOC1)N1CCC(N2CCN(C3CCN(C(=O)c4cc(C(F)(F)F)cc(C(F)(F)F)c4)C(Cc4ccc(F)cc4)C3)CC2)C1 (stereo not shown) [Compound 274] | 10 nM | – | 3980 nM |
| O=C(C1CC1)N1CCC(N2CCN(C3CCN(C(=O)c4cc(C(F)(F)F)cc(C(F)(F)F)c4)C(Cc4ccc(F)cc4)C3)CC2)C1 (stereo not shown) [Compound 277] | 10 nM | – | 2510 nM |
| O=C(C1CCCCN1)N1CCC(N2CCN(C3CCN(C(=O)c4cc(C(F)(F)F)cc(C(F)(F)F)c4)C(Cc4ccccc4)C3)CC2)C1 (stereo not shown) [Compound 294] | 20 nM | 7940 nM | – |
| COc1ccc(C(O)C(=O)N2CCC(N3CCN([C@H]4CCN(C(=O)c5cc(C(F)(F)F)cc(C(F)(F)F)c5)[C@H](Cc5ccccc5)C4)CC3)C2)cc1 (stereo partly shown) [Compound 333] | 20 nM | 2510 nM | – |
| O=C(c1cc(C(F)(F)F)cc(C(F)(F)F)c1)N1CCC(N2CCN(C3CCN(S(=O)(=O)c4cc(CCOCc5ccccc5)cs4)C3)CC2)CC1Cc1ccccc1 (stereo not shown) [Compound 335] | 316 nM | 1000 nM | – |

| SMILES | IC50 (NK1) | IC50 (NK2) | IC50 (NK3) |
| --- | --- | --- | --- |
| O=C(c1cc(C(F)(F)F)cc(C(F)(F)F)c1)N1CC[C@H](N2CCN(C3CCN(S(=O)(=O)c4ccc(CCOCc5ccccc5)s4)C3)CC2)C[C@H]1Cc1ccccc1 (stereo partly shown) [Compound 336] | 158 nM | 1000 nM | – |
| CC(C)N/C(=N\C#N)N1CCC(N2CCN(C3CCN(C(=O)c4cc(C(F)(F)F)cc(C(F)(F)F)c4)C(Cc4ccccc4)C3)CC2)C1 (stereo not shown) [Compound 344] | 20 nM | 3980 nM | – |
| O=C(c1cc(C(F)(F)F)cc(C(F)(F)F)c1)N1CC[C@H](N2CCN(C3CCN(S(=O)(=O)c4ccc(COCc5ccccc5)s4)C3)CC2)C[C@H]1Cc1ccccc1 (stereo partly shown) [Compound 345] | 200 nM | 501 nM | – |
| O=C(c1ccc(CCOCc2ccccc2)s1)N1CCC(N2CCN(C3CCN(C(=O)c4cc(C(F)(F)F)cc(C(F)(F)F)c4)C(Cc4ccccc4)C3)CC2)C1 (stereo not shown) [Compound 356] | 126 nM | – | 3980 nM |
| Cc1nc2c(o1)CCn1ccnc1C2N1CCC(N2CCN(C3CCN(C(=O)c4cc(C(F)(F)F)cc(C(F)(F)F)c4)C(Cc4ccccc4)C3)CC2)C1 (stereo not shown) [Compound 375] | 12.6 nM | – | 3980 nM |
| CC1(C)OCC(CNC(=C[N+](=O)[O-])N2CCC(N3CCN([C@H]4CCN(C(=O)c5cc(C(F)(F)F)cc(C(F)(F)F)c5)[C@H](Cc5ccccc5)C4)CC3)C2)O1 (stereo partly shown) [Compound 376] | 25.1 nM | – | 3980 nM |
| O=C(c1cc(C(F)(F)F)cc(C(F)(F)F)c1)N1CC[C@H](N2CCN(C3CCN(C(=C[N+](=O)[O-])N4CCCC4)C3)CC2)C[C@H]1Cc1ccccc1 (stereo partly shown) [Compound 377] | 15.8 nM | – | 6310 nM |
| CC(C)N1CC(CN2CCC(N3CCN(C4CCN(C(=O)c5cc(C(F)(F)F)cc(C(F)(F)F)c5)C(Cc5ccccc5)C4)CC3)C2)OC1=O (stereo not shown) [Compound 385] | 31.6 nM | – | 3980 nM |
| O=C1CC[C@@H](C(=O)N2CCC(N3CCN([C@H]4CCN(C(=O)c5cc(C(F)(F)F)cc(C(F)(F)F)c5)[C@H](Cc5ccccc5)C4)CC3)C2)O1 (stereo partly shown) [Compound 386] | 20 nM | – | 5010 nM |
| O=C1CC[C@H](C(=O)N2CCC(N3CCN([C@H]4CCN(C(=O)c5cc(C(F)(F)F)cc(C(F)(F)F)c5)[C@H](Cc5ccccc5)C4)CC3)C2)O1 (stereo partly shown) [Compound 387] | 20 nM | – | 5010 nM |
| CC(C)(C)OCC(=O)N1CCC(N2CCN([C@H]3CCN(C(=O)c4cc(C(F)(F)F)cc(C(F)(F)F)c4)[C@H](Cc4ccccc4)C3)CC2)C1 (stereo partly shown) [Compound 388] | 15.8 nM | – | 794 nM |
| CC(=O)OCC(=O)N1CCC(N2CCN(C3CCN(C(=O)c4cc(C(F)(F)F)cc(C(F)(F)F)c4)C(Cc4ccccc4)C3)CC2)C1 (stereo not shown) [Compound 389] | 15.8 nM | – | 6310 nM |
| CC(C)(C)OCCC(=O)N1CCC(N2CCN(C3CCN(C(=O)c4cc(C(F)(F)F)cc(C(F)(F)F)c4)C(Cc4ccccc4)C3)CC2)C1 (stereo not shown) [Compound 391] | 20 nM | – | 3160 nM |
| CC1(C)OC(=O)[C@@H](CC(=O)N2CCC(N3CCN([C@H]4CCN(C(=O)c5cc(C(F)(F)F)cc(C(F)(F)F)c5)[C@H](Cc5ccccc5)C4)CC3)C2)O1 (stereo partly shown) [Compound 392] | 251 nM | – | 7940 nM |
| O=C(c1cc(C(F)(F)F)cc(C(F)(F)F)c1)N1CC[C@H](N2CCN(C3CCN(S(=O)(=O)c4occc4CCOCc4ccccc4)C3)CC2)C[C@H]1Cc1ccccc1 (stereo partly shown) [Compound 410] | 50.1 nM | 1260 nM | – |
| COCCC(=O)N1CC[C@H](N2CCN([C@H]3CCN(C(=O)c4cc(C(F)(F)F)cc(C(F)(F)F)c4)[C@H](Cc4ccccc4)C3)CC2)C1 [Compound 413] | 31.6 nM | – | 2000 nM |
| COCCC(=O)N1CC[C@@H](N2CCN([C@H]3CCN(C(=O)c4cc(C(F)(F)F)cc(C(F)(F)F)c4)[C@H](Cc4ccccc4)C3)CC2)C1 [Compound 414] | 39.8 nM | – | 631 nM |
